Data reported in the supplement of paper PMC8967900.

Assays:
Experiment in all cases: selective drug sensitivity score (sDSS, relative to normal bone marrow) (sDSS (score)); higher = more potent and effective on the cell line relative to normal bone marrow cells
Settings in all cases: 72 h
[1] = test system: ALL-SIL
[2] = test system: CCRF-CEM
[3] = test system: CCRF-HSB2
[4] = test system: COG-LL-317
[5] = test system: COG-LL-332h
[6] = test system: COG-LL-355h
[7] = test system: COG-LL-394h
[8] = test system: COG-LL-402h
[9] = test system: JURKAT
[10] = test system: KARPAS-45
[11] = test system: KASUMI-9
[12] = test system: LC4-1
[13] = test system: NALM-6
[14] = test system: P12-ICHIKAWA
[15] = test system: P30-OHKUBO
[16] = test system: PEER
[17] = test system: PF-382
[18] = test system: RPMI-8402
[19] = test system: TANOUE
[20] = test system: TMD5
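Note: ALL cell lines in 384-well plates, five doses spanning 10,000-fold, each plate scaled between vehicle and 100 µmol/L benzalkonium chloride controls, sDSS an adapted area-under-curve metric.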

| Structure (SMILES) | selective drug sensitivity score [1] | selective drug sensitivity score [2] | selective drug sensitivity score [3] | selective drug sensitivity score [4] | selective drug sensitivity score [5] | selective drug sensitivity score [6] | selective drug sensitivity score [7] | selective drug sensitivity score [8] | selective drug sensitivity score [9] | selective drug sensitivity score [10] | selective drug sensitivity score [11] | selective drug sensitivity score [12] | selective drug sensitivity score [13] | selective drug sensitivity score [14] | selective drug sensitivity score [15] | selective drug sensitivity score [16] | selective drug sensitivity score [17] | selective drug sensitivity score [18] | selective drug sensitivity score [19] | selective drug sensitivity score [20] |
| --- | --- | --- | --- | --- | --- | --- | --- | --- | --- | --- | --- | --- | --- | --- | --- | --- | --- | --- | --- | --- |
| CNC(=O)c1ccc(C)c(-n2c(C)cc(OCc3ccc(F)cc3F)c(Br)c2=O)c1 (top concentration 1000 nM) | 0 | 0 | 0 | 0 | 0 | 0 | 0 | 0 | 0.9 | 0 | 2.3 | 0 | 0.1 | 0 | 4.5 | 0 | 0 | 0 | 0 | 0 |
| CONC(=O)c1ccccc1Nc1cc(Nc2cc(C)nn2C(C)C)ncc1Cl (top concentration 1000 nM) | 0.86 | -0.94 | -0.94 | -0.94 | -0.94 | 1.66 | -0.94 | -0.94 | -0.94 | -0.94 | -0.94 | 3.36 | 0.56 | -0.94 | -0.94 | -0.94 | -0.94 | -0.94 | 0.36 | -0.94 |
| CCOc1ccn(-c2ccc(F)cc2)c(=O)c1C(=O)Nc1ccc(Oc2ccnc(N)c2Cl)c(F)c1 (top concentration 2500 nM) | 8 | 0.6 | 3.2 | 0 | 3.2 | 0 | 0.8 | 0 | 0 | 2.2 | 0 | 0 | 2 | 3 | 1.5 | 3.9 | 0 | 0.4 | 0 | 0 |
| CC[C@@H]1[C@H](F)C(=O)N[C@@H]1COc1nccc2cc(C(N)=O)c(OC)cc12 (top concentration 10000 nM) | -1.32 | 1.58 | 1.88 | 1.28 | -0.42 | 1.28 | 0.38 | 3.08 | 0.48 | 2.58 | 0.08 | 0.08 | 4.48 | 0.18 | 2.38 | 1.08 | -0.42 | 1.38 | -0.22 | -1.32 |
| C[C@H]1C[C@@H](n2c(Nc3ccc(OC(F)(F)F)cc3)nc3cc(CCC(=O)O)ccc32)CC(C)(C)C1 (top concentration 10000 nM) | 1.06 | 1.56 | 2.56 | 2.56 | 1.36 | 2.16 | -0.14 | -0.14 | 4.26 | 2.76 | 0.66 | 0.76 | 0.16 | 1.26 | -0.14 | 2.16 | 0.66 | 1.46 | -0.14 | -0.14 |
| O=C(NCc1ccncc1)C12CC3CC(C1)CC(c1ccc(Cl)cc1)(C3)C2 (top concentration 50000 nM) | 2.08 | 2.28 | 2.68 | -0.12 | 2.08 | 0.48 | 2.88 | 0.08 | 3.18 | 3.28 | 4.28 | 0.18 | -0.22 | 3.68 | 3.18 | 2.88 | 0.48 | 2.68 | -0.72 | 0.68 |
| O=C(O)c1ccc(CN2CCC(CN[C@@H]3C[C@H]3c3ccccc3)CC2)cc1 (top concentration 100000 nM) | -0.62 | -0.02 | -0.12 | 6.48 | 0.08 | 0.58 | -0.62 | -0.62 | -0.62 | -0.32 | -0.62 | -0.02 | -0.62 | -0.62 | -0.62 | -0.22 | -0.42 | -0.22 | -0.62 | -0.62 |
| COc1cc(N2CCN(C)CC2)ccc1Nc1nccc(-c2cn(C)c3cnccc23)n1 [AZ191] (top concentration 10000 nM) | -1.52 | -1.42 | 1.18 | 0.58 | -0.02 | -0.02 | -0.72 | -0.22 | -3.02 | 0.98 | 1.58 | -2.72 | -1.72 | -2.22 | -0.72 | -1.92 | -1.82 | 0.18 | -4.62 | -4.32 |
| Cc1cc(Nc2nc(N[C@@H](C)c3ncc(F)cn3)ncc2Cl)[nH]n1 [AZD1480] (top concentration 1000 nM) | -0.28 | -3.98 | -1.78 | -2.78 | -3.08 | 0.42 | -4.18 | -3.98 | -3.68 | 0.32 | -0.68 | -4.08 | -3.58 | -4.28 | -4.18 | -3.48 | -4.08 | -3.18 | -4.28 | -1.98 |
| COc1cc(CCc2cc(NC(=O)c3ccc(N4CC(C)NC(C)C4)cc3)n[nH]2)cc(OC)c1 (stereo not given) [AZD4547] (top concentration 1000 nM) | 0.56 | -0.14 | -0.14 | -0.14 | -0.04 | -0.14 | 0.16 | -0.14 | -0.14 | -0.14 | -0.14 | 0.66 | -0.14 | -0.14 | -0.14 | -0.14 | -0.14 | -0.14 | -0.14 | -0.14 |
